Test results taken from patent US8420654B2 (Eli Lilly and Company, priority 2008, dated 2013).

Legend:
[1] = molecular target: T1, rCB-1 (Rattus norvegicus, UniProt P20272); assay: rCB1-CHO antagonist mode SPA GTP-γ-35S binding assay; format: biochemical; conditions: rat CB-1 CHO membranes, antagonist mode vs methanandamide; read-out: rCB-1 SPA GTPγS CHO Membrane Antagonist Kb
T1 construct: purchased Applied Cell Sciences, Rockville, Md; host or cells: CHO cells (membranes)
Experimental: (§1) Compounds of the present invention may be tested for functional activity at the CB-1 and CB-2 receptors in both agonist and antagonist modes using SPA (Scintillation Proximity Assay) based GTP-γ-^35S binding assays. All assay components are prepared in assay buffer (20 mM HEPES, 100 mM NaCl, 5 mM MgCl2, pH 7.4) at room temperature. Semi-log dilutions of test compound are prepared in assay buffer containing BSA (0.125% final conc.) for the agonist mode assays. For the antagonist mode assays, test compounds are prepared in the same manner but also include an 80% efficacious dose of a full agonist (methanandamide). GTP-γ^35S binding for the antagonist assay may be measured in a 96 well format using a modification of an antibody capture technique previously described. (DeLapp, N W, et al. (1999) J Pharmacol Exp Ther 289:946-955.) The CB-2 receptor agonist activity may be measured using a similar method using hCB2-Sf9 membranes. The CB-1 receptor agonist activity may be measured using a whole membrane capture technique using hCB1-CHO membranes. All incubations are done at room temperature.
(§2) hCB1-CHO and rCB1-CHO Antagonist Assays:
hCB1-CHO or rCB1-CHO membranes (Applied Cell Sciences, Rockville, Md.) and GDP (1 μM final) are added to ice cold assay buffer and homogenized. […] Plates are then centrifuged at 700×g for 10 min. and the radioactivity counted.
Data are analyzed as follows: Background is subtracted from all wells. […] Percent antagonist inhibition is calculated by first normalizing the data to the signal generated by a saturating concentration of the full agonist (methanandamide). Then the data are analyzed using a 4-parameter logistic reduced fit (Activity Base™ and XLFit3™ from IDBS, Emeryville, Calif.). Kb values are determined using a modification of the Cheng-Prusoff relationship: Kb=IC50/(1+[agonist]/EC50), where “IC50” is determined from a four parameter fit of displacement curves, “[agonist]” is the agonist challenge concentration (nM), and “EC50” is determined from a four parameter fit of a full agonist concentration response curve (Cheng and Prusoff 1973). […]

[2] = molecular target: T2, hCB-2 (Homo sapiens, UniProt P34972); assay: hCB2-Sf9 agonist mode SPA GTP-γ-35S binding assay; format: biochemical; conditions: human CB-2 Sf9 membranes, read-out: hCB-2 SPA GTPγS Sf9 Membrane Agonist Relative EC50
T2 construct: purchased Perkin Elmer, Boston, Mass; host or cells: Sf9 insect cells (membranes)
Experimental: as §1
The hCB2-5f9 assay is run essentially as for the hCB1-sf9 and hCB2-sf9 antagonist assays above, with no challenging agonist added. 1 μM (final conc.) GDP is added to the membrane solution and nonidet P40, anti-Gi-antibody, and SPA bead are added together in a cocktail.
(§3) Data are analyzed as follows: Background is subtracted from all wells. Percent agonist efficacy is determine by normalizing agonist/inverse agonist dose response data to the response obtained for a full agonist (methanandamide). Percent antagonist inhibition is calculated by first normalizing the data to the signal generated by a saturating concentration of the full agonist (methanandamide). Then the data are analyzed using a 4-parameter logistic reduced fit (Activity Base™ and XLFit3™ from IDBS, Emeryville, Calif.). Kb values are determined using a modification of the Cheng-Prusoff relationship: Kb=IC50/(1+[agonist]/EC50), where “IC50” is determined from a four parameter fit of displacement curves, “[agonist]” is the agonist challenge concentration (nM), and “EC50” is determined from a four parameter fit of a full agonist concentration response curve (Cheng and Prusoff 1973). Mean Kb values are calculated as a mean of at least three independent determinations±standard error of the mean (SEM). (Cheng Y C and Prusoff W H. (1973), Biochem Pharmacol 22:3099-3108.) Exemplified compounds are found to be potent CB-1 inverse agonists (Kb≦10 nM, typically <2 nM) and to be selective over the CB-2 receptor (Kb CB-2/Kb CB-1>500, typically >1000).

[3] = molecular target: T3, CYP2C9 (Homo sapiens, UniProt P11712); assay: Human CYP fingerprinting, sulfaphenazole inhibitor; format: in vitro ADME; conditions: 4 μM, human liver microsomes, 30 min, sulfaphenazole 5 μM
T3 construct: pooled, mixed gender, human liver microsomes; from tissue; host or cells: pooled, mixed gender human liver microsomes
Experimental: (§4) CYP fingerprinting is well established technique and is used as an indication of potential risk of drug-drug interactions in the pharmaceutical sciences. Compounds of the present invention may be assayed by well known methods, essentially as follows: Compounds are incubated at 37° C. at a final concentration of 4 μM with pooled, mixed gender, human liver microsomes and 1 mM NADPH ([…]) (final conc.) for 0 and 30 min. without any CYP inhibitor and with each CYP inhibitor in separate incubations for 30 min. Each inhibitor is specific for an individual cytochrome P450. The specific inhibitors used for CYPs 2C9, 2D6 and 3A were sulfaphenazole, quinidine and ketoconazole, respectively. Ketoconazole (CYP3A) is made up at 25 mM in DMSO and then diluted in buffer to a final concetration of 10 μM. Quinidine (CYP2D6) is made up at 5 mM in 50/50 acetonitrile/water and then diluted in buffer to a final concetration of 10 μM. Sulfaphenazole (CYP2C9) is made up at 100 mM in DMSO and then diluted in buffer to a final concetration of 5 μM. Samples are analyzed by LC-MS in positive or negative electrospray mode using a Waters Acquity Ultra Performance LC coupled to a MicroMass Q-T of-2 mass spectrometer.
(§5) Data are analyzed using MetaboLynx™ version 4.1. With inhibitor present, a reduction in metabolite peak area of less than 30% (relative to the uninhibited control incubation) receives a designation of low risk of Drug Drug Interaction (DDI), a reduction in peak area between 30% and 70% receives a moderate risk of DDI and a reduction of more than 70% receives a high risk of DDI.

[4] = molecular target: T2, hCB-2; assay: hCB2-Sf9 antagonist mode SPA GTP-γ-35S binding assay; format: biochemical; conditions: human CB-2 Sf9 membranes, antagonist mode vs methanandamide; read-out: hCB-2 SPA GTPγS Sf9 Membrane Antagonist Kb
Experimental: as §1
hCB1-Sf9 and hCB2-Sf9 antagonist Assays:
hCB1-5f9 and hCB2-5f9 membranes (Perkin Elmer, Boston, Mass.) are prepared essentially as above with 1 μM (final conc.) GDP for hCB1-5f9 and 0.05 μM (final conc.) GDP for hCB2-5f9. The assay is run essentially as described for the CHO membranes above. Diluted membranes are pre-incubated with test compound for 15 min., which is followed by addition of GTP-γ-^35S and a further 35 min. incubation. Nonidet P40 and anti-Gi-antibody are added sequentially with a 15 min. incubation after each addition. The SPA beads are then added, the plates are sealed and vortexed, and then incubated at room temperature for 1 hr.
Data are analyzed as follows: Background is subtracted from all wells. Percent agonist efficacy is determine by normalizing agonist/inverse agonist dose response data to the response obtained for a full agonist (methanandamide). Percent antagonist inhibition is calculated by first normalizing the data to the signal generated by a saturating concentration of the full agonist (methanandamide). Then the data are analyzed using a 4-parameter logistic reduced fit (Activity Base™ and XLFit3™ from IDBS, Emeryville, Calif.). Kb values are determined using a modification of the Cheng-Prusoff relationship: Kb=IC50/(1+[agonist]/EC50), where “IC50” is determined from a four parameter fit of displacement curves, “[agonist]” is the agonist challenge concentration (nM), and “EC50” is determined from a four parameter fit of a full agonist concentration response curve (Cheng and Prusoff 1973). Mean Kb values are calculated as a mean of at least three independent determinations±standard error of the mean (SEM). […]

[5] = molecular target: T4, hCB-1 (Homo sapiens, UniProt P21554); assay: hCB1-CHO antagonist mode SPA GTP-γ-35S binding assay; format: biochemical; conditions: human CB-1 CHO membranes, antagonist mode vs methanandamide; read-out: hCB-1 SPA GTPγS CHO Membrane Antagonist Kb
T4 construct: purchased Applied Cell Sciences, Rockville, Md; host or cells: CHO cells (membranes)
Experimental: as §1, §2
hCB1-CHO or rCB1-CHO membranes (Applied Cell Sciences, Rockville, Md.) and GDP (1 μM final) are added to ice cold assay buffer and homogenized. Diluted compounds, GTP-γ-^35S (500 nM final conc.) and membranes are added to wells of an assay plate and incubated for 30 min. at room temperature. Next, a mixture containing Nonidet P40 detergent (0.2% final conc.), rabbit polyclonal IgG Gαi-3 antibody (provided by Covance, Princeton, N.J.), and 1.25 mg anti-rabbit antibody scintillation proximity assay beads (GE Healthcare, Piscataway, N.J.) is added. The plates are sealed, vortexed, and incubated for an additional 2 hr. Plates are then centrifuged at 700×g for 10 min. and the radioactivity counted.
Data are analyzed as follows: Background is subtracted from all wells. […] Percent antagonist inhibition is calculated by first normalizing the data to the signal generated by a saturating concentration of the full agonist (methanandamide). Then the data are analyzed using a 4-parameter logistic reduced fit (Activity Base™ and XLFit3™ from IDBS, Emeryville, Calif.). Kb values are determined using a modification of the Cheng-Prusoff relationship: Kb=IC50/(1+[agonist]/EC50), where “IC50” is determined from a four parameter fit of displacement curves, “[agonist]” is the agonist challenge concentration (nM), and “EC50” is determined from a four parameter fit of a full agonist concentration response curve (Cheng and Prusoff 1973). Mean Kb values are calculated as a mean of at least three independent determinations±standard error of the mean (SEM). […]

[6] = molecular target: T4, hCB-1; assay: hCB1-CHO agonist mode SPA GTP-γ-35S binding assay; format: biochemical; conditions: for hCB-1 SPA GTPγS CHO Membrane Agonist % Relative Efficacy: normalized to full agonist methanandamide, below zero = inverse agonist; for EC50: human CB-1 CHO membranes, agonist mode (inverse agonism), read-out: hCB-1 SPA GTPγS CHO Membrane Agonist Relative EC50 inverse
Experimental: as §1
hCB1-CHO membrane, GDP (1 μM final conc.), and saponin (10 ng/mL final conc., Sigma, St Louis, Mo.) are combined and prepared on ice as for the antagonist assays, above. Diluted test compounds, GTP-γ-^35S (500 nM final conc.) and membranes are combined in the assay plate and incubated for 30 min. Then 1 mg/well Wheatgerm Agglutinin SPA beads (GE Healthcare, Piscataway, N.J.) are added, plates are sealed and vortexed and incubate for 1 hr. before spinning and counting in the same fashion as for the antagonist assays, above.
as §3

[7] = molecular target: T5, CYP2D6 (Homo sapiens, UniProt P10635); assay: Human CYP fingerprinting, quinidine inhibitor; format: in vitro ADME; conditions: 4 μM, human liver microsomes, 30 min, quinidine 10 μM
T5 construct: pooled, mixed gender, human liver microsomes; from tissue; host or cells: pooled, mixed gender human liver microsomes
Experimental: as §4, §5

[8] = system: CYP3A; assay: Human CYP fingerprinting, ketoconazole inhibitor; format: in vitro ADME; conditions: 4 μM, human liver microsomes, 30 min, ketoconazole 10 μM
Experimental: as §4, §5

T2 sequence (P34972 whole entry): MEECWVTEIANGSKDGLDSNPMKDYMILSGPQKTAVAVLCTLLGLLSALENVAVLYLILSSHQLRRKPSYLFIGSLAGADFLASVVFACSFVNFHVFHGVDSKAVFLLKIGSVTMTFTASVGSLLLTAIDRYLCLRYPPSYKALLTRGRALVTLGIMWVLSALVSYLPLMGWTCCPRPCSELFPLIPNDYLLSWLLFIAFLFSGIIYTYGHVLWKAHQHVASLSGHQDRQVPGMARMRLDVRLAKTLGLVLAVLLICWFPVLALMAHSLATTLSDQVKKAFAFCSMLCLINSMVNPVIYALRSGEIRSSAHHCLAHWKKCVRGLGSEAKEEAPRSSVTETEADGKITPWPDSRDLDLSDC
T1 sequence (P20272 whole entry): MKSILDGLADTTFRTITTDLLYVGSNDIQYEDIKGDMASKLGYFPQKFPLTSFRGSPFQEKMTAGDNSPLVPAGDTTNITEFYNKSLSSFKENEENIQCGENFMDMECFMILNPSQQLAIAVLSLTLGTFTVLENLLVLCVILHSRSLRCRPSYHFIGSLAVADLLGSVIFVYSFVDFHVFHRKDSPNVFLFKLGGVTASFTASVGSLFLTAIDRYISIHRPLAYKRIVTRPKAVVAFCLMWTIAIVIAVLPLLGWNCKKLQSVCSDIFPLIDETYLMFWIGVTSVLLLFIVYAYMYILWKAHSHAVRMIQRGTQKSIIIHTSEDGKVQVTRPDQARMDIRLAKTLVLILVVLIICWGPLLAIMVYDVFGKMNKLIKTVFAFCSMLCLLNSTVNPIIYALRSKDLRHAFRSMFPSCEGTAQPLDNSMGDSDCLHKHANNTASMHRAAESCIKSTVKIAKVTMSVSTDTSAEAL
T4 sequence (P21554 whole entry): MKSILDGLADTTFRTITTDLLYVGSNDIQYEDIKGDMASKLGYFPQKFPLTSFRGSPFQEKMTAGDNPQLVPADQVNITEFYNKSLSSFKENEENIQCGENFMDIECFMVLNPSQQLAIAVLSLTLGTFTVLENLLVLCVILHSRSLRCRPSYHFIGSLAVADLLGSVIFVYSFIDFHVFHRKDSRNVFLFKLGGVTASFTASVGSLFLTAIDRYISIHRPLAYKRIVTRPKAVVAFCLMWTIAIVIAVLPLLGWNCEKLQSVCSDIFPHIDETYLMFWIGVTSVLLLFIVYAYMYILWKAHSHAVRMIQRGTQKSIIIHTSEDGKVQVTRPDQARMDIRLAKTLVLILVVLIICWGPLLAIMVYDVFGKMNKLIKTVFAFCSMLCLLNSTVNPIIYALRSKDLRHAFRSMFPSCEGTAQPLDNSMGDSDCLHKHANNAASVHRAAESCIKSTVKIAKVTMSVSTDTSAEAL
T3 sequence (P11712 whole entry): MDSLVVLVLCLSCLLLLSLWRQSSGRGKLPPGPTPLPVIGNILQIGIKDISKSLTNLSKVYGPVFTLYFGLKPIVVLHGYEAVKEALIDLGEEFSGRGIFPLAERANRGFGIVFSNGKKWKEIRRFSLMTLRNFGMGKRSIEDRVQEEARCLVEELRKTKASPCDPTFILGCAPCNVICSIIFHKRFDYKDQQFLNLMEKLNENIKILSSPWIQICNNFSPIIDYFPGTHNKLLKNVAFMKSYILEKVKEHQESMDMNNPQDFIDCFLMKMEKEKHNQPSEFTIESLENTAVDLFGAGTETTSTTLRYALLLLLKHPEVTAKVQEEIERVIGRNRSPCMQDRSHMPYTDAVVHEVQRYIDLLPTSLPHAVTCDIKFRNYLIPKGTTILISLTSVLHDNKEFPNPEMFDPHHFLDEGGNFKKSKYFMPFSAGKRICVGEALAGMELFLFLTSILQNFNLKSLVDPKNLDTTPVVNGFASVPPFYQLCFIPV
T5 sequence (P10635 whole entry): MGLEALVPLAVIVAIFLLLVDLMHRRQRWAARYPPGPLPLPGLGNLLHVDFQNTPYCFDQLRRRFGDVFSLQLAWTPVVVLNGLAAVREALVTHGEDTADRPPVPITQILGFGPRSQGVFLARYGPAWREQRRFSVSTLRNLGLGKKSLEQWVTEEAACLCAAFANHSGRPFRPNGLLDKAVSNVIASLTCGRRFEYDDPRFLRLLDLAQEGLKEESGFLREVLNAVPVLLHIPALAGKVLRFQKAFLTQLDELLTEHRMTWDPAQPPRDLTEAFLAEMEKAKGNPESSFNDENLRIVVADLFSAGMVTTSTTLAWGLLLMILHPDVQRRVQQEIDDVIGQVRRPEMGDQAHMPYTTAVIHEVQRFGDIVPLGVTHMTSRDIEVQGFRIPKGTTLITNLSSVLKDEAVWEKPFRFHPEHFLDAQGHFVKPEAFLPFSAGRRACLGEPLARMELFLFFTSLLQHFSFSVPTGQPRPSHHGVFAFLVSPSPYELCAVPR

Row | Compound | Kb [1] [nM] | EC50 [2] [nM] | Risk of Drug Drug Interaction (DDI) CYP2C9 [3] | Kb [4] [nM] | Kb [5] [nM] | hCB-1 SPA GTPγS CHO Membrane Agonist % Relative Efficacy [6] [%] | Risk of Drug Drug Interaction (DDI) CYP2D6 [7] | EC50 [6] [nM] | Risk of Drug Drug Interaction (DDI) CYP3A [8]
1 | CC(C)(N[C@@H]1C[C@H](c2cccc(OC(F)(F)F)c2)N(c2ccc(C(F)(F)F)cc2)C1=O)c1ccnc(C(F)(F)F)n1 [Example 1, (3R,5R)-3-[1-Methyl-1-(2-trifluoromethyl-pyrimidin-4-yl)-ethylamino]-5-(3-trifluoromethoxy-phenyl)-1-(4-trifluoromethyl-phenyl)-pyrrolidin-2-one] | 0.177 | > 8710 | low (a reduction in metabolite peak area of less than 30% (relative to the uninhibited control incubation) receives a designation of low risk of Drug Drug Interaction (DDI)) | > 8710 | 0.895 | −99.3 | – | – | –
2 | CC(C)(N[C@@H]1C[C@H](c2ccccc2)N(c2ccc(OC(F)(F)F)cc2)C1=O)c1ccnc(C(F)(F)F)n1 [Example 4] | 0.176 | 288 | low (a reduction in metabolite peak area of less than 30% (relative to the uninhibited control incubation) receives a designation of low risk of Drug Drug Interaction (DDI)) | 288 | 0.83 | −105 | low (a reduction in metabolite peak area of less than 30% (relative to the uninhibited control incubation) receives a designation of low risk of Drug Drug Interaction (DDI)) | 2.52 | low (a reduction in metabolite peak area of less than 30% (relative to the uninhibited control incubation) receives a designation of low risk of Drug Drug Interaction (DDI))
3 | CC(C)(N[C@@H]1C[C@H](c2cccc(F)c2)N(c2ccc(OC(F)(F)F)cc2)C1=O)c1ccnc(C(F)(F)F)n1 [Example 3, (3R,5R)-3-[1-Methyl-1-(2-trifluoromethyl-pyrimidin-4-yl)-ethylamino]-5-(3-fluoro-phenyl)-1-(4-trifluoromethoxy-phenyl)-pyrrolidin-2-one] | 0.195 | 379 | low (a reduction in metabolite peak area of less than 30% (relative to the uninhibited control incubation) receives a designation of low risk of Drug Drug Interaction (DDI)) | 397 | 0.916 | −107 | low (a reduction in metabolite peak area of less than 30% (relative to the uninhibited control incubation) receives a designation of low risk of Drug Drug Interaction (DDI)) | 1.11 | low (a reduction in metabolite peak area of less than 30% (relative to the uninhibited control incubation) receives a designation of low risk of Drug Drug Interaction (DDI))
